Values of other authors in patent US9624258B2, “Polymorph of regadenoson” (Biophore India Pharmaceuticals PVT. Ltd., priority 2013, dated 2017).

Tests used:
[1] = background statement
A2A adenosine receptor = A2A adenosine receptor (Homo sapiens, UniProt P29274); settings: background statement on compound of U.S. Pat. No. 6,403,567
Sequence of A2A adenosine receptor (P29274 whole entry): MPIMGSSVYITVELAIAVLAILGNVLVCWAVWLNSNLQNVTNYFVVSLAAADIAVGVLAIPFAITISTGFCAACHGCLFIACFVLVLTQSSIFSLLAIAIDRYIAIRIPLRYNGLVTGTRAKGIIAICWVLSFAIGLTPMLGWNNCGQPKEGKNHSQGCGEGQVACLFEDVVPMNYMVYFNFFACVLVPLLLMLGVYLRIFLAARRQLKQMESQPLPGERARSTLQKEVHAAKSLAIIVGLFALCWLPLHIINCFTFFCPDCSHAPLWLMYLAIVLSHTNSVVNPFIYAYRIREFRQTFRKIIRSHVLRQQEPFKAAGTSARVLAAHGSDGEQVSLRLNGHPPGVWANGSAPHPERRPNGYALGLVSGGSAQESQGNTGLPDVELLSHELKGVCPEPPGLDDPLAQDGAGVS

For `CNC(=O)c1cnn(-c2nc(N)c3ncn([C@@H]4O[C@H](CO)[C@@H](O)[C@H]4O)c3n2)c1` [Regadenoson, (1-{9-[(4S,2R,3R,5R)-3,4-dihydroxy-5-(hydroxymethyl)oxolan-2-yl)-6-aminopurin-2-yl}pyrazole-4-yl)-N-methylcarboxamide], the biological half-life [1] is listed as 2- to 3 minute and the “A2A adenosine receptor agonist selectivity” value (A2A adenosine receptor) is listed as “highly selective A2A adenosine receptor agonist”.
